Reference: patent publication US20230219986A1, “NOVEL AMINOPYRIMIDINE EGFR INHIBITOR” (QILU PHARMACEUTICAL CO., LTD., priority 2020, published 2023)
Counter-ions that a name gives are not always drawn. Like-named read-outs stand apart in the source and are kept apart here.

Columns and labels:
wild-type EGFR = biological target: T1, wild-type EGFR (Homo sapiens, UniProt P00533); assay: Enzymology experiment in vitro (HTRF/FRET kinase activity), wild-type EGFR; type: biochemical; details: HTRF KinEASE-TK, read-out: EGFR (WT) IC50
T1 construct: purchased Signalchem
Summary of the method: (§1)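 HTRF KinEASE-TK format: EGFR enzyme preincubated with compound 10 min at room temperature, then peptide substrate plus ATP added for 40 min. Detection with EDTA, XL665-streptavidin and Eu³⁺-labeled antibody for 1 h.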

[1] = biological target: T2, L858R/T790M/C797S triple mutant EGFR (Homo sapiens, UniProt P00533, C797S/L858R/T790M); assay: Enzymology experiment in vitro (HTRF/FRET kinase activity), L858R/T790M/C797S triple mutant EGFR; type: biochemical; details: HTRF KinEASE-TK, read-out: EGFR (L858R/T790M/C797S) IC50
T2 construct: purchased Signalchem
Summary of the method: as §1

[2] = test system: EGFR wild-type cell line A431; assay: Cell proliferation inhibition experiment (CellTiter-Glo), A431; type: cell-based; details: Homo sapiens, A431 cells, Cell Titer-Glo, read-out: A431 EGFR WT IC50
Summary of the method: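 A431 cells, 800 per well, were cultured 24 h and then exposed to serially diluted compound (0.1% DMSO final) for 72 h at 37° C., 5% CO2.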

[3] = biological target: Ba/F3 De119/T790M/C797S EGFR triple mutant cell line (Homo sapiens, UniProt P00533, T790M/C797S, cells depend on it, form not given); assay: Cell proliferation inhibition experiment (CellTiter-Glo), Ba/F3 De119/T790M/C797S; type: cell-based; details: Ba/F3 Del19/T790M/C797S EGFR triple mutant cells, 72 hours, Cell Titer-Glo; read-out: Ba/F3 (Del19/T790M/C797S) IC50
[4] = biological target: Ba/F3 L858R/T790M/C797S EGFR triple mutant cell line (Homo sapiens, UniProt P00533, T790M/C797S/L858R, cells depend on it); assay: Cell proliferation inhibition experiment (CellTiter-Glo), Ba/F3 L858R/T790M/C797S; type: cell-based; details: 72 hours, Cell Titer-Glo, read-out: Ba/F3 (L858R/T790M/C797S) IC50
Ba/F3 L858R/T790M/C797S EGFR triple mutant cell line, sequence (P00533 whole entry T790M/C797S/L858R): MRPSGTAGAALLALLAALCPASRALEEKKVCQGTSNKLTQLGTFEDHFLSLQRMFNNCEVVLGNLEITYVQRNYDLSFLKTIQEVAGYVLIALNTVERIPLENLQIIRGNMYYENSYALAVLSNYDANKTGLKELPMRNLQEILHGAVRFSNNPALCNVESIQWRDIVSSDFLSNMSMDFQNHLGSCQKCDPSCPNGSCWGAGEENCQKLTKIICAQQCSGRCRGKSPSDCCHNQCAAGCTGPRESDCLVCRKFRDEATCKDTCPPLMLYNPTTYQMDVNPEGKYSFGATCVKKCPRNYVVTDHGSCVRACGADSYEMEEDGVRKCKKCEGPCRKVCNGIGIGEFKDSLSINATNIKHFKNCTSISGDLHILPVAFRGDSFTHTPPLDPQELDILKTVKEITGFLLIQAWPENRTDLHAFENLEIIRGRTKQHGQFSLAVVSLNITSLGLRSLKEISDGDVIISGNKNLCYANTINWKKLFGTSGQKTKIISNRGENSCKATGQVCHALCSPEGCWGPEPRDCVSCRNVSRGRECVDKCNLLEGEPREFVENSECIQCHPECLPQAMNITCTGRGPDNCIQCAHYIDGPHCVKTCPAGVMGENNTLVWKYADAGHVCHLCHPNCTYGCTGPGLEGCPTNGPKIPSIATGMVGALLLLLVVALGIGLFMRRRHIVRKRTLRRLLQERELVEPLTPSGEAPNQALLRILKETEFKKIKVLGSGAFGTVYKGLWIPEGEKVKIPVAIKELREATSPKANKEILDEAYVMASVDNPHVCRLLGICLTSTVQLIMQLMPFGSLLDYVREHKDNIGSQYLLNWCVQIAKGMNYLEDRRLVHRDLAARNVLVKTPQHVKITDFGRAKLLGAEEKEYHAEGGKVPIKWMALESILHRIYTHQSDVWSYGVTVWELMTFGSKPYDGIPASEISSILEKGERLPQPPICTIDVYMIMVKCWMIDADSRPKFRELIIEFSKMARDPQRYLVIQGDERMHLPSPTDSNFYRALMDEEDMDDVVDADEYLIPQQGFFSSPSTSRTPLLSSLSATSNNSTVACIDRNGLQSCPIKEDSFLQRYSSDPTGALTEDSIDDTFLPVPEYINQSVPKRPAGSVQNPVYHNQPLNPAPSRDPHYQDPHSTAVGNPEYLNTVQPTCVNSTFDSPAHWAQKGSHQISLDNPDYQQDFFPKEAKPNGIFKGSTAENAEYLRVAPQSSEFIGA

T1 sequence (P00533 25-1210): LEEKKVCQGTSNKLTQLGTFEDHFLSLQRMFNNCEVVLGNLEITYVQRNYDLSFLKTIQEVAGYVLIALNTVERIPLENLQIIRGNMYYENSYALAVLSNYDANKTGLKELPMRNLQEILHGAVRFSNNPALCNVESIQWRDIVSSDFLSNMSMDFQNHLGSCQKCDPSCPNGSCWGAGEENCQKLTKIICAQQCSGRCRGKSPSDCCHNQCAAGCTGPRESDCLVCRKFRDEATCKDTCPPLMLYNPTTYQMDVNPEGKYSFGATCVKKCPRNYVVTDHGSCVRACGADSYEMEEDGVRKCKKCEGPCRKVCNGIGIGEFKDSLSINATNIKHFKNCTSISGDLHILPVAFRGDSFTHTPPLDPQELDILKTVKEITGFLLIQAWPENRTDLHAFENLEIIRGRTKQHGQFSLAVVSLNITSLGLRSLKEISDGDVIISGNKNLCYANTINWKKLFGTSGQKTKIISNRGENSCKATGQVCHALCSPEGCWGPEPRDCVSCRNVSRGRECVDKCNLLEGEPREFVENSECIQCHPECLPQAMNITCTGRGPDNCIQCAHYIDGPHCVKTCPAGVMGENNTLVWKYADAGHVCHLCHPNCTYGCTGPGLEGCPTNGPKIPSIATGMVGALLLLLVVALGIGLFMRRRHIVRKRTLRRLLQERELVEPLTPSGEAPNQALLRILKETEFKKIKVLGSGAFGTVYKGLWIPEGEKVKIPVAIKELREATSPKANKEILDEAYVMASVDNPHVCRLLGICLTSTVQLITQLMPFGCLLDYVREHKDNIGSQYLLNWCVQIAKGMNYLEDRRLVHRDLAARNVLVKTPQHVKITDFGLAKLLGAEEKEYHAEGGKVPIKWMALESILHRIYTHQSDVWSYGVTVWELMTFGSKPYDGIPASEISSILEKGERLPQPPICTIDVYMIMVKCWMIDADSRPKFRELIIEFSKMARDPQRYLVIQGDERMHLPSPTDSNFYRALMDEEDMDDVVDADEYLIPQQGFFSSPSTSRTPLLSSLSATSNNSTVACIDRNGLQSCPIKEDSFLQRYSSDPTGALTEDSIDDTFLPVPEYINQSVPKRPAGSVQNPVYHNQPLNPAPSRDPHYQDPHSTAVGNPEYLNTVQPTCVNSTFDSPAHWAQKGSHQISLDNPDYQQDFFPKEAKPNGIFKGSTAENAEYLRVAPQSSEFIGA
Ba/F3 De119/T790M/C797S EGFR triple mutant cell line, sequence (P00533 with tags, fused parts or gaps DEL746-750/T790M/C797S, form open): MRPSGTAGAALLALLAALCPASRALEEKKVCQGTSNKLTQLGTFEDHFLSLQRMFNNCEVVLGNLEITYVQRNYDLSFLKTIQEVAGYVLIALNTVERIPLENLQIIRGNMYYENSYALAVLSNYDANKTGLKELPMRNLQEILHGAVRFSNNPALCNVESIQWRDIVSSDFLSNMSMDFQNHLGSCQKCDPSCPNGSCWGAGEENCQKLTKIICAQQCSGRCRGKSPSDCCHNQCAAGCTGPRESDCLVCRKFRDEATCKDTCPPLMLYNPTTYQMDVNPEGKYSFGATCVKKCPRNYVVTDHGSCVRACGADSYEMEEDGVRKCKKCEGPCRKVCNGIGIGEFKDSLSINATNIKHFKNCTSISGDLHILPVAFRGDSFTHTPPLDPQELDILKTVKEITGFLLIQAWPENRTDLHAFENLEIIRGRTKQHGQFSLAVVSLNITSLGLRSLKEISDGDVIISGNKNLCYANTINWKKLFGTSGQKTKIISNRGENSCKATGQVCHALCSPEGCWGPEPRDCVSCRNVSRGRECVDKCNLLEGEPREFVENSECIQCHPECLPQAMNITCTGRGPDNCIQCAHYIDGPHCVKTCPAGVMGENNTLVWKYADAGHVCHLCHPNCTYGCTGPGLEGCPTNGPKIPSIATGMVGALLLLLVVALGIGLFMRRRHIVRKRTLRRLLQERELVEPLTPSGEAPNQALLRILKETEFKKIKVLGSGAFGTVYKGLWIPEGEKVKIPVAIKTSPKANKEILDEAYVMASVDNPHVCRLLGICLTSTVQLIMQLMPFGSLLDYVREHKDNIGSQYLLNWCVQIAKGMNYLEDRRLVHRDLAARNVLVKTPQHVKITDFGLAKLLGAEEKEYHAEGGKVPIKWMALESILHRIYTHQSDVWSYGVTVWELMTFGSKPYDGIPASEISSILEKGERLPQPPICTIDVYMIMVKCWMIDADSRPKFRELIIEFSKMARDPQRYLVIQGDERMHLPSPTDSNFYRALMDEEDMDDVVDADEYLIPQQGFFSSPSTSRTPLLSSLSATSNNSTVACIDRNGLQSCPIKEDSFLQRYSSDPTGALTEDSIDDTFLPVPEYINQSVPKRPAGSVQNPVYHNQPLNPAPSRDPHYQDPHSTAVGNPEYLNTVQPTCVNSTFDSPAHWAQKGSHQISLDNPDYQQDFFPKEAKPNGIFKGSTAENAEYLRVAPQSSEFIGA
T2 sequence (P00533 25-1210 T790M/C797S/L858R): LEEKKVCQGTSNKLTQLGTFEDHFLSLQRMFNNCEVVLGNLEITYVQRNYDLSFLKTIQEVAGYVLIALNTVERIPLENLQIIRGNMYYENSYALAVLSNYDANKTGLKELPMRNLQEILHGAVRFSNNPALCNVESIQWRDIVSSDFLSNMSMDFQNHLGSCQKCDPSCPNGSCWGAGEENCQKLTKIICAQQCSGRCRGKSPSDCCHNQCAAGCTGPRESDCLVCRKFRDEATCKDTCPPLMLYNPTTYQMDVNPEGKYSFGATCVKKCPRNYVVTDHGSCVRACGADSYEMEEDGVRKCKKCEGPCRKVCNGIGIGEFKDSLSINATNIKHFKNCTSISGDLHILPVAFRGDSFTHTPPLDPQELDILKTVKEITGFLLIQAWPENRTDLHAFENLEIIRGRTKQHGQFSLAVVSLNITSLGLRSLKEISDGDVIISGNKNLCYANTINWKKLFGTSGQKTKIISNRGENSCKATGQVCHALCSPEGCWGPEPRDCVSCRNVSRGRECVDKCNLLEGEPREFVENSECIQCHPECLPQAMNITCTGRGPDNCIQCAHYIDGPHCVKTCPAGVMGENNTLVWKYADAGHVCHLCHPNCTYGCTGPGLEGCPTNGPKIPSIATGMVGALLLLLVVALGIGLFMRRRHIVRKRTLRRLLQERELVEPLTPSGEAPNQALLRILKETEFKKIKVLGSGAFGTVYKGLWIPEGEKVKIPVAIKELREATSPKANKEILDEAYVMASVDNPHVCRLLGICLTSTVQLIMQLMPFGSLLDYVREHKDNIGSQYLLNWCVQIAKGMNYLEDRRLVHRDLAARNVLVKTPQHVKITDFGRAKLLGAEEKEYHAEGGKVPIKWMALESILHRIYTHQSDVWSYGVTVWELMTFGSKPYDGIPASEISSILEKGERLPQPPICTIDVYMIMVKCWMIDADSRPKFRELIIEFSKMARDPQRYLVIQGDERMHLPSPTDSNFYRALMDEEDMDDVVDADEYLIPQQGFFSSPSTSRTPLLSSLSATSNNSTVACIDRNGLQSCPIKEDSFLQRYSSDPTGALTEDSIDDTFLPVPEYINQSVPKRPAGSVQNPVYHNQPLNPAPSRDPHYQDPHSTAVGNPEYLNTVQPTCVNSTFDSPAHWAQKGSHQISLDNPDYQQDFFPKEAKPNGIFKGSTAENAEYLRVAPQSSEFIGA

Row | IC50 (wild-type EGFR) [nM] | IC50 [1] [nM] | IC50 ([2]; A-431, 72 h) [nM] | GI50 [3] [nM] | GI50 [4] [nM] | Structure (SMILES) | IC50 ([2]; A-431, 72 hours) [nM]
1 | 3.53 | 0.16 | 88.9 | 3.52 | 9.67 | [2H]C([2H])([2H])OCCN1CCN(c2cc(OC)c(Nc3ncc(Br)c(Nc4ccc5nccnc5c4P(C)(C)=O)n3)cc2-c2cnn(C)c2)CC1 [compound 181] | 
2 | 15.4 | 0.13 | 362 | 4.73 | 13.7 | COCCN(C)c1cc(OC)c(Nc2ncc(Br)c(Nc3ccc4nccnc4c3P(C)(C)=O)n2)cc1-c1cnn(C)c1 [compound 28] | 
3 | 268 | 3.18 | 1140 | 32.6 | 65.6 | COc1nc(N2CCOCC2)c(-c2cn(C)nc2C)cc1Nc1ncc(Br)c(Nc2ccc3nccnc3c2P(C)(C)=O)n1 [compound 37] | 
4 | 7 | 0.17 | 76.9 | 2.88 | 3.56 | COc1cc(N2CCC(N3CC(F)C3)C2)c(-c2cnn(C)c2)cc1Nc1ncc(Br)c(Nc2ccc3nccnc3c2P(C)(C)=O)n1 (racemic) [compound 223, (6-((5-Bromo-2-((4-(3-(3-fluoroazetidin-1-yl)pyrrolidin-1-yl)-2-methoxy-5-(1-methyl-1H-pyrazol-4-yl)phenyl)amino)pyrimidin-4-yl)amino)quinoxalin-5-yl)dimethylphosphine oxide] | 
5 | 0.92 | 0.26 | 1100 | 57 | 161 | COc1cc(N2CCN(C(N)=O)CC2)c(-c2cnn(C)c2)cc1Nc1ncc(Br)c(Nc2ccc3nccnc3c2P(C)(C)=O)n1 [compound 112] | 
6 | 1.57 | 0.06 | 63.9 | 4.03 | 18.1 | COc1cc(N(C)CCN(C)C)c(-c2cnn(C)c2)cc1Nc1ncc(Br)c(Nc2ccc3nccnc3c2P(C)(C)=O)n1 [compound 21] | 
7 | 8.35 | 1.2 | 516 | 3.93 | 7.93 | COc1cc(N2CCC(F)CC2)c(-c2cnn(C)c2)cc1Nc1ncc(Br)c(Nc2ccc3nccnc3c2P(C)(C)=O)n1 [compound 124] | 
8 | 4.55 | 0.1 | 47 | 6.06 | 10.7 | COc1cc(N2CCC(N(C)C)C2)c(-c2cnn(C)c2)cc1Nc1ncc(Br)c(Nc2ccc3nccnc3c2P(C)(C)=O)n1 (centres unmarked) [compound 10] | 
9 | 50.2 | 0.26 | 1420 | 10.1 | 32.5 | COc1cc(N2CCOCC2)c(-c2cnn(C)c2)cc1Nc1ncc(Br)c(Nc2cc(C)c3nccnc3c2P(C)(C)=O)n1 [Compound 33, (6-((5-bromo-2-((2-methoxy-5-(1-methyl-1H-pyrazol-4-yl)-4-morpholinylphenyl)amino)pyrimidin-4-yl)amino)-8-methylquinoxalin-5-yl)dimethylphosphine oxide] | 
10 | 2.45 | 0.29 | 139 | 1.57 | 3.34 | COc1cc(N2CCN(C3COC3)CC2)c(-c2cnn(C)c2)cc1Nc1ncc(Br)c(Nc2ccc3nccnc3c2P(C)(C)=O)n1 [compound 150, (6-((5-bromo-2-((2-methoxy-5-(1-methyl-1H-pyrazol-4-yl)-4-(4-(oxetan-3-yl)piperazin-1-yl)phenyl)amino)pyrimidin-4-yl)amino)quinoxalin-5-yl)dimethylphosphine oxide] | 
11 | 4.26 | 0.09 | 40.9 | 2.18 | 4.45 | COc1cc(N2CCN(C(C)C)CC2)c(-c2cnn(C)c2)cc1Nc1ncc(Br)c(Nc2ccc3nccnc3c2P(C)(C)=O)n1 [Compound 88, (6-((5-bromo-2-((4-(4-isopropylpiperazin-1-yl)-2-methoxy-5-(1-methyl-1H-pyrazol-4-yl)phenyl)amino)pyrimidin-4-yl)amino)quinoxalin-5-yl)dimethylphosphine oxide] | 
12 | 5.79 | 0.57 | 348 | 9.45 | 14.6 | COc1cc(N2CCC3(CC2)COCCN3C)c(-c2cnn(C)c2)cc1Nc1ncc(Br)c(Nc2cc3c(cc2N(C)S(C)(=O)=O)CC3)n1 [compound 208] | 
13 | 29.9 | 0.51 | 304 | 8.2 | 19.2 | COc1cc(N2CCC(C)(OC)CC2)c(-c2cnn(C)c2)cc1Nc1ncc(Br)c(Nc2ccccc2P(C)(C)=O)n1 [compound 240] | 
14 | 4.37 | 0.53 | 194 | 4.16 | 8.69 | COc1cc(N2CCC(N3CCN(C)CC3)CC2)c(-c2cnn(C)c2)cc1Nc1ncc(Br)c(Nc2ccccc2N(C)S(=O)(=O)C2CC2)n1 [compound 190] | 
15 | 5.73 | 0.04 | 245 | 2.11 | 8.73 | COc1cc(N2CC[C@H](OC)[C@H](F)C2)c(-c2cnn(C)c2)cc1Nc1ncc(Br)c(Nc2ccc3nccnc3c2P(C)(C)=O)n1 [compound 187] | 
16 | 0.57 | 0.24 | 61 | 1.59 | 2.33 | COCCN1CCC2(CC1)CCN(c1cc(OC)c(Nc3ncc(Br)c(Nc4ccc5nccnc5c4P(C)(C)=O)n3)cc1-c1cnn(C)c1)CC2 [compound 139] | 
17 | 3.74 | 0.59 | 91.3 | 2.93 | 3.75 | COc1cc(N2CCC3(CC2)CN(C(C)C)CCO3)c(-c2cnn(C)c2)cc1Nc1ncc(Br)c(Nc2ccc3nccnc3c2P(C)(C)=O)n1 [compound 202] | 
18 | 121 | 1.12 | 8840 | 24.3 | 82 | Cn1cc(-c2cc(Nc3ncc(Br)c(Nc4ccccc4P(C)(C)=O)n3)c(OCC(F)(F)F)nc2N2CCOCC2)cn1 [compound 123] | 
19 | 105 | 2.8 | 747 | 5.35 | 11.6 | COc1cc(N2CCC3(CCN(CC(F)(F)F)CC3)CC2)c(-c2cnn(C)c2)cc1Nc1ncc(Br)c(Nc2ccc3nccnc3c2P(C)(C)=O)n1 [compound 245] | 
20 | 7.68 | 1.29 | 168 | 2.86 | 13 | COc1cc(N2CCN(S(=O)(=O)C3CC3)CC2)c(-c2cnn(C)c2)cc1Nc1ncc(Br)c(Nc2ccc3nccnc3c2P(C)(C)=O)n1 [compound 178] | 
21 | 18 | 0.09 | 316 | 4.21 | 17.5 | COc1cc(N2CCOCC2)c(-c2cnn(C)c2)cc1Nc1ncc(Br)c(Nc2ccccc2P(C)(C)=O)n1 [Compound 2, (2-((5-bromo-2-((2-methoxy-5-(1-methyl-1H-pyrazol-4-yl)-4-morpholinylphenyl)amino)pyrimidin-4-yl)amino)phenyl)dimethylphosphine oxide] | 
22 | 1.44 | 0.05 | 73.5 | 1 | 9 | COc1cc(N2CCN3CCCC3C2)c(-c2cnn(C)c2)cc1Nc1ncc(Br)c(Nc2ccc3nccnc3c2P(C)(C)=O)n1 (centres unmarked) [compound 130] | 
23 | 8.49 | 0.4 | 101 | 1.71 | 4.43 | COc1cc(N2CCOC(COC(C)C)C2)c(-c2cnn(C)c2)cc1Nc1ncc(Br)c(Nc2ccc3nccnc3c2P(C)(C)=O)n1 (centres unmarked) [compound 182] | 
24 | 2.57 | 0.35 | 67.4 | 0.71 | 4.2 | COc1cc(N2CCC3CCN(C)C3C2)c(-c2cnn(C)c2)cc1Nc1ncc(Br)c(Nc2ccc3nccnc3c2P(C)(C)=O)n1 (centres unmarked) [compound 168] | 
25 | 9.84 | 1.17 | 197 | 2.62 | 8.67 | COc1cc(N2CCOC(C)(C)C2)c(-c2cnn(C)c2)cc1Nc1ncc(Br)c(Nc2ccc3nccnc3c2P(C)(C)=O)n1 [compound 120] | 
26 | 1.12 | 0.37 | 40.1 | 1.08 | 1.12 | COc1cc(N2CCC3(CCN(CCF)CC3)CC2)c(-c2cnn(C)c2F)cc1Nc1ncc(Br)c(Nc2ccc3nccnc3c2P(C)(C)=O)n1 [compound 231] | 
27 | 4.69 | 0.2 | 370 | 4.54 | 13.5 | COc1cc(N2CCOCC2)c(-c2cnn(C)c2)cc1Nc1ncc(Cl)c(Nc2ccc3nccnc3c2P(C)(C)=O)n1 [compound 72] | 

Row | Structure (SMILES) | IC50 (wild-type EGFR) [nM] | IC50 [1] [nM] | IC50 ([2]; A-431, 72 h) [nM] | GI50 [3] [nM] | GI50 [4] [nM] | IC50 ([2]; A-431, 72 hours) [nM]
28 | COc1cc(N2CCC3(CC2)CN(C)C3)c(-c2cnn(C)c2)cc1Nc1ncc(Br)c(Nc2ccc3nccnc3c2P(C)(C)=O)n1 [Compound 16, (6-((5-bromo-2-((2-methoxy-5-(1-methyl-1H-pyrazol-4-yl)-4-(2-methyl-2,7-diazaspiro[3.5]nonan-7-yl)phenyl)amino)pyrimidin-4-yl)amino)quinoxalin-5-yl)dimethylphosphine oxide formate] | 0.51 | 0.05 |  | 13.2 | 23.5 | 51.3
